Measured values as given in patent US8957074B2 (Novartis AG, priority 2010, dated 2015).
Like-named read-outs stand apart in the source and are kept apart here.

Columns and labels:
[1] = system: phosphorylation of pRb at the Ser780 site in JeKo-1 mantle cell lymphoma cells; assay: CDK4 cellular assay: ELISA of pRb phosphorylation at Ser780 in JeKo-1 cells; format: cell-based; settings: Homo sapiens
From the text: Cell-based assay measuring phosphorylation levels of pRb at the Ser780 site using an enzyme-linked immunosorbent assay (ELISA) method (Table 6). JeKo-1, a mantle-cell lymphoma cell line, was selected for use in this assay due to its known translocation and subsequent overexpression of cyclin D1. [Ref: Amin, H. M.; McDonnell, T. J.; Medeiros, L. J.; Rassidakis, G. Z.; Leventaki, V.; O'Connor, S. L.; Keating, M. J.; Lai, R. Characterization of 4 mantle cell lymphoma cell lines—Establishment of an in vitro study model. Arch. Pathol. Lab.
Cells were allowed to adhere overnight. […] 10 μL of the dilution were then transferred to the cell culture plate, resulting in a final concentration range of 10 μM to 2 nM. The incubation was carried out at 37° C. with 5% CO2. All compounds were tested in triplicates at each concentration. […] The plates were placed at 4° C. with vigorous shaking for 5 min to lyse the cells. The resulting lysates contained approximately 1 μg/μL of protein.
Plates were incubated overnight at 4° C. with rocking. […] After shaking for 10 minutes, the Superblock solution was replaced with fresh Superblock and plates were incubated on a shaker for an additional 50 min. After blocking, 30 μL of JeKo-1 cell lysate, containing approximately 10 μg total protein, were added to wells in triplicate. […] For all incubation steps, plates were covered with Uniseal plate sealers. […] Next, 50 μL of a 1:2500 dilution of donkey-anti-rabbit HRP (Promega catalog no. W401B) in PBS/10% Superblock were added, and plates were incubated for 30 min at room temperature on a shaker. Plates were again washed as described above. […] After incubation, 50 μL 2 M sulfuric acid were added to plates to top the reaction, and absorbance was determined on a SpectraMax (Molecular Devices, Sunnydale, Calif.) within 15 minutes at 450 nm. All washes were performed using a Bio-Tek plate washer.
The Total Rb ELISA kit (Invitrogen catalog no. KH00011) was used to determine the levels of total pRb. This kit uses wells precoated with a proprietary total pRb antibody for capture. All reagents listed, with the exception of cell lysate, were included in the kit. The nature of the antibodies used for capture and detection was labeled as proprietary and not disclosed. 10 μg of cell lysate was loaded into the wells and volume adjusted to 50 μL with standard dilution buffer. Plates were sealed with film included in the kit and incubated for 2 h at room temperature on a shaker. Plates are then manually washed three times with 250 μL wash buffer. 50 μL of proprietary primary antibody (pre-conjugated to biotin) was added to wells and incubated for 1 h at room temperature on a shaker. Then plates were again washed as noted above. The secondary antibody (HRP pre-conjugated to Streptavidin) was diluted 1:100 in Streptavidin-HRP diluent buffer and 50 μL was added to each well. Plates were then incubated for 30 min. Afterwards, plates were washed four times with buffer as outlined above. Finally, 50 μL stabilized Chromogen was added per well and plates were incubated for 15 min, at which point 50 μL of stop solution was added. Plates were then read on a Spectramax at 450 nm.
The total pRb levels were then used to adjust the p-pRb % inhibition values to account for any loss of signal due to the absence of the pRb protein itself, and the IC50 values obtained from the adjusted % inhibitions represent normalized cellular p-pRb IC50.

CDK4/cyclin D1 = CDK4/cyclin D1 (Homo sapiens (Human), UniProt P11802); assay: CDK4/cyclin D1 enzymatic activity assay (TR-FRET, phosphorylation of pRb at Ser780); format: biochemical
Sequence of CDK4/cyclin D1 (P11802 whole entry): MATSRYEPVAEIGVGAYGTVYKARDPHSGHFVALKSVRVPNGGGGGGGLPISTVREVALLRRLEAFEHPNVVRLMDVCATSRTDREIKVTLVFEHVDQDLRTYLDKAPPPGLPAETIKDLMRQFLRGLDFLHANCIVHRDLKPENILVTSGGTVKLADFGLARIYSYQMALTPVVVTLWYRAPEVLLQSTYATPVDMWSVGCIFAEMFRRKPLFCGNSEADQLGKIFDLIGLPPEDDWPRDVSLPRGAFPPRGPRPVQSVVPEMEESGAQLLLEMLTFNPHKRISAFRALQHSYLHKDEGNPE
Sequence of CDK4/cyclin D1 (P24385 whole entry partner): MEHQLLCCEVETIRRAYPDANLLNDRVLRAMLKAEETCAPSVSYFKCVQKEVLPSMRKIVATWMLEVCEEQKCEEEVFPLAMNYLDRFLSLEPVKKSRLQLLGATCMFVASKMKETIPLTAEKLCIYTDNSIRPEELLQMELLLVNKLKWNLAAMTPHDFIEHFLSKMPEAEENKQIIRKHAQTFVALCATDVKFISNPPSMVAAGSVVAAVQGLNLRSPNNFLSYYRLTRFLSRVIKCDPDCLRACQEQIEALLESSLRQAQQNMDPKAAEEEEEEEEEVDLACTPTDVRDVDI
Experimental: CDK4/Cyclin D1 Enzymatic Activity Assay
An assay for monitoring CDK4/cyclin D1-catalyzed phosphorylation of pRb at the Ser780 site was performed using TR-FRET in a 384-well format, and was used for IC50 determination and kinetic analysis. […] 3 μM ATP was added last to initiate the reaction. The reaction was quenched with 10 μL of 240 mM EDTA-Na (pH 8.0) after 60 min incubation at 22° C.
Human CDK4/cyclin D1 was expressed in Sf21 cells via baculovirus infection.

CDK1/cyclin B = CDK1/cyclin B (Homo sapiens (Human), UniProt P06493); assay: CDK1/cyclin B enzymatic activity assay (IMAP-FP); format: biochemical
Sequence of CDK1/cyclin B (P06493 whole entry, species assumed): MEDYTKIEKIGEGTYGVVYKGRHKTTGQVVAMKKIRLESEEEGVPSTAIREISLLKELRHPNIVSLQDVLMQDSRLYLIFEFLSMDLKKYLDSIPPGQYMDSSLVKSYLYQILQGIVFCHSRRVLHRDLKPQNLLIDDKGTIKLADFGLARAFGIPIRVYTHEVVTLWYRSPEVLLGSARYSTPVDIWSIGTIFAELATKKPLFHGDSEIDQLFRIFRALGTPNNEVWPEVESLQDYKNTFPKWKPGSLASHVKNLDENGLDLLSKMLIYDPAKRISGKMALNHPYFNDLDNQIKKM
Sequence of CDK1/cyclin B (P14635 whole entry partner, species assumed): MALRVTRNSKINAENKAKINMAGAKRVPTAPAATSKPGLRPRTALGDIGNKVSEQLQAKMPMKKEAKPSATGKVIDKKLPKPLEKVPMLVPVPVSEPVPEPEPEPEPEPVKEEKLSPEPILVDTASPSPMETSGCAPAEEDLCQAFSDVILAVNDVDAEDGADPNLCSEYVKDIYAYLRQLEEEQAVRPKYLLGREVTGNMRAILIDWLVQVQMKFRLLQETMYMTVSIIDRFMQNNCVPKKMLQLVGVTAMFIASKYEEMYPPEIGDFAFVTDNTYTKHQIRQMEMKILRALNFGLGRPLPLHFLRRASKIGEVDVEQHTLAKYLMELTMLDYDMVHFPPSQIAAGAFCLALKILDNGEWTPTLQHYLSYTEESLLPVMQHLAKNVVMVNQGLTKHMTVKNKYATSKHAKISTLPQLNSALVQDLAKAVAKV
From the text: CDK1/Cyclin B Enzymatic Activity Assay
A 384-well microtiter IMAP-FP™ (Molecular Devices Trade Mark Technology) endpoint assay was used for CDK1/cyclin B kinase activity measurements. The same assay was used for IC50 determination of small molecule inhibitors.

[2] = JeKo-1 cells, p-pRb % inhibition adjusted with total pRb levels, read-out: Normalized cellular ppRb inhibition IC50
[3] = JeKo-1 cells, p-pRb Ser780 ELISA, non-normalized, read-out: Cellular ppRb inhibition IC50
[4] = 0.3 nM CDK4/cyclin D1, 150 nM biotin-pRb (773-924), 3 μM ATP, 60 min at 22° C., read-out: Biochemical CDK4 enzyme IC50
[5] = […] CDK1/cyclin B, 100 nM Tamra Histone-H1 peptide, 20 μM ATP, 120 min at room temperature, read-out: Biochemical CDK1 enzyme IC50
[6] = JeKo-1, JeKo-1 cells, p-pRb % inhibition adjusted with total pRb levels, read-out: Normalized cellular ppRb inhibition IC50
[7] = JeKo-1, JeKo-1 cells, p-pRb Ser780 ELISA, non-normalized, read-out: Cellular ppRb inhibition IC50

SMILES | IC50 [1, 2] [µM] | IC50 [1, 3] [µM] | IC50 (CDK4/cyclin D1; [4]) [µM] | IC50 (CDK1/cyclin B; [5]) [µM] | IC50 [1, 6] [µM] | IC50 [1, 7] [µM] | IC50 (CDK4/cyclin D1) [µM] | IC50 (CDK1/cyclin B; 0.25 nM CDK1/cyclin B, 100 nM Tamra Histone-H1 peptide, 20 μM ATP, 120 min at room temperature, read-out: Biochemical CDK1 enzyme IC50) [µM] | IC50 (CDK1/cyclin B) [µM]
CN(C)C(=O)c1cc2cnc(Nc3ccc(C(=O)N4CC5CCC4C5O)cn3)nc2n1C1CCCC1 (stereo not drawn) [Example 26] | 0.388 | 0.325 | 0.038 | > 15 |  |  |  |  | 
CN(C)C(=O)c1cc2cnc(Nc3ccc(N4C[C@@H]5CNC[C@@H]5C4=O)cn3)nc2n1C1CCCCCC1 [Example 82, 7-cycloheptyl-N,N-dimethyl-2-(5-((3aS,6aR)-1-oxohexahydropyrrolo[3,4-c]pyrrol-2(1H)-yl)pyridin-2-ylamino)-7H-pyrrolo[2,3-d]pyrimidine-6-carboxamide] | 0.009 | 0.005 | 0.004 | 2.66 |  |  |  |  | 
CN(C)C(=O)c1cc2cnc(Nc3ccc(N4C[C@@H]5CC[C@H](CC4=O)N5C)cn3)nc2n1C1CCCC1 [Example 141, 7-Cyclopentyl-2-[5-((1S,6R)-9-methyl-4-oxo-3,9-diaza-bicyclo[4.2.1]non-3-yl)-pyridin-2-ylamino]-7H-pyrrolo[2,3-d]pyrimidine-6-carboxylic acid dimethylamide] |  |  | 0.045 | > 15 | 0.034 | 0.024 |  |  | 
CN(C)C(=O)c1cc2cnc(Nc3ccc(N4CCN5CCC[C@@H]5C4=O)cn3)nc2n1C1CCCC1 [Example 147] |  |  | 0.027 | > 15 | 0.31 | 0.257 |  |  | 
CN(C)C(=O)c1cc2cnc(Nc3ccc(C(=O)N4CC5CCC(C4)N5)cn3)nc2n1[C@@H]1C[C@H]2CC[C@@H]1C2 (stereo in doubt) [Example 36, 7-(1R,2R,4S)-Bicyclo[2.2.1]hept-2-yl-2-[5-(3,8-diaza-bicyclo[3.2.1]octane-3-carbonyl)-pyridin-2-ylamino]-7H-pyrrolo[2,3-d]pyrimidine-6-carboxylic acid dimethylamide] |  |  | 0.003 | 13 | 0.028 | 0.023 |  |  | 
CN(C)C(=O)c1cc2cnc(Nc3ccc(C(=O)N4CC5CCC(C4)N5)nn3)nc2n1C1CCCC1 [Example 38, 7-Cyclopentyl-2-[6-(3,8-diaza-bicyclo[3.2.1]octane-3-carbonyl)-pyridazin-3-ylamino]-7H-pyrrolo[2,3-d]pyrimidine-6-carboxylic acid dimethylamide] |  |  |  |  | 0.139 to 0.783 | 0.075 to 0.259 | 0.045 to 0.084 | > 15 | 
CN(C)C(=O)c1cc2cnc(Nc3ccc(N4C[C@@H]5CNC[C@@H]5CC4=O)cn3)nc2n1C1CCCCCC1 (stereo in doubt) [Example 89, 7-cycloheptyl-N,N-dimethyl-2-(5-(cis-6-oxotetrahydro-1H-pyrrolo[3,4-c]pyridin-5(6H,7H,7aH)-yl)pyridin-2-ylamino)-7H-pyrrolo[2,3-d]pyrimidine-6-carboxamide] |  |  | 0.003 | 6.48 | 0.004 to 0.015 | 0.005 to 0.007 |  |  | 
CN(C)C(=O)c1cc2cnc(Nc3ccc(C(=O)N4CC5CC4CN5)cn3)nc2n1C1CCCCC1 (stereo not drawn) [Example 67, 7-Cyclohexyl-2-[5-(2,5-diaza-bicyclo[2.2.1]heptane-2-carbonyl)-pyridin-2-ylamino]-7H-pyrrolo[2,3-d]pyrimidine-6-carboxylic acid dimethylamide] | 0.054 | 0.051 | 0.003 | 10.4 |  |  |  |  | 
[2H]C([2H])([2H])N1C2CCC1CN(C(=O)c1ccc(Nc3ncc4cc(C(=O)N(C)C)n(C5CCCC5)c4n3)nc1)C2 [Example 63, 7-Cyclopentyl-2-[5-(8-methyl-d3-3,8-diaza-bicyclo[3.2.1]octane-3-carbonyl)-pyridin-2-ylamino]-7H-pyrrolo[2,3-d]pyrimidine-6-carboxylic acid dimethylamide] |  |  | 0.011 to 0.024 |  | 0.04 to 0.242 | 0.034 to 0.078 |  |  | > 15
